This assay addresses alkyladenine DNA glycosylase (AAG) (Homo sapiens, UniProt P29372). As to the kind of experiment: TRES coupled AAG/APE1 activity assay at […]. It is filed as biochemical. As to conditions: read-out: % inhibition at 10 μM.

Chain of alkyladenine DNA glycosylase (AAG) (P29372 18-298): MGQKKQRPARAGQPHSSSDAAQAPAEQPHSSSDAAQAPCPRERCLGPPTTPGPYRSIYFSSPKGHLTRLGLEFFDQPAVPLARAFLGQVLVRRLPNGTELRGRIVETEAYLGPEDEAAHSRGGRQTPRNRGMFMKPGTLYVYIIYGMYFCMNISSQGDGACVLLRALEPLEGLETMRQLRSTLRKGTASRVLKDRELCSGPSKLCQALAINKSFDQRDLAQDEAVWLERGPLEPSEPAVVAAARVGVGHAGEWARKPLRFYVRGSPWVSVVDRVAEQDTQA

For orientation: inhibition means the relative decrease from the control value, in per cent. Regarding `O=c1c(O)c(-c2ccc(O)cc2O)oc2cc(O)cc(O)c12` [morin], the inhibition at 10 µM was determined as 77.5%.

These data come from article PMC10257196 (Journal of Pharmaceutical Analysis, 2023).
